Results: PubChem BioAssay (NCI)
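Where inhibition never reached the appropriate level, the endpoint shown equals the highest concentration tested. Otherwise, values were interpolated linearly from a five-concentration, 48-hour dose response in 96-well plates. Here, GI50 denotes the concentration required for 50% inhibition of growth. TGI marks complete inhibition of growth.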

Key:
Experiment in all cases: NCI anticancer screen, dose series, 48 h
SF-268 CNS = test system: SF-268 CNS
HT29 colon = test system: HT29 colon
SF-295 CNS = test system: SF-295 CNS
NCI-H522 lung = test system: NCI-H522 lung
MDA-MB-435 = test system: MDA-MB-435
HOP-92 NSCLC = test system: HOP-92 NSCLC
A549 NSCLC = test system: A549 NSCLC
NCI/ADR-RES ovarian = test system: NCI/ADR-RES ovarian
K-562 leukemia = test system: K-562 leukemia
RXF 393 renal = test system: RXF 393 renal
SK-MEL-28 melanoma = test system: SK-MEL-28 melanoma
SF-539 CNS = test system: SF-539 CNS
EKVX NSCLC = test system: EKVX NSCLC

## C1CSCC2(COC2)CS1
SF-268 CNS
  TGI: > 100 µM
HT29 colon
  TGI: > 100 µM
SF-295 CNS
  TGI: > 100 µM
NCI-H522 lung
  TGI: > 100 µM
MDA-MB-435
  TGI: > 100 µM
HOP-92 NSCLC
  TGI: > 100 µM
A549 NSCLC
  TGI: > 100 µM
NCI/ADR-RES ovarian
  TGI: > 100 µM
K-562 leukemia
  TGI: > 100 µM
RXF 393 renal
  TGI: > 100 µM
SK-MEL-28 melanoma
  TGI: > 100 µM

## CC(C)=CCC/C(C)=C/Cc1cc(/C=C/c2cc(O)c(CC=C(C)C)c(O)c2)cc(O)c1O
SF-268 CNS
  TGI: 12.3 µM
HT29 colon
  TGI: 13.6 µM
SF-539 CNS
  TGI: 13.8 µM
SF-295 CNS
  TGI: 18.2 µM
NCI-H522 lung
  TGI: 0.38 µM
MDA-MB-435
  TGI: 12.2 µM
HOP-92 NSCLC
  TGI: 15.6 µM
A549 NSCLC
  TGI: 17.5 µM
NCI/ADR-RES ovarian
  TGI: 13.3 µM
K-562 leukemia
  TGI: 10.4 µM
RXF 393 renal
  TGI: 8.65 µM
EKVX NSCLC
  TGI: 7.46 µM
SK-MEL-28 melanoma
  TGI: 17.5 µM

## O=C(Cc1ccccc1)N/N=C(/CCN1CCCC1)CC(c1ccccc1)c1c(O)c2ccccc2oc1=O (stereo unspecified)
SF-268 CNS
  TGI: > 100 µM
HT29 colon
  TGI: > 100 µM
SF-539 CNS
  TGI: > 100 µM
NCI-H522 lung
  TGI: > 100 µM
MDA-MB-435
  TGI: > 100 µM
HOP-92 NSCLC
  TGI: > 100 µM
A549 NSCLC
  TGI: > 100 µM
NCI/ADR-RES ovarian
  TGI: > 100 µM
K-562 leukemia
  TGI: > 100 µM
EKVX NSCLC
  TGI: > 100 µM
SK-MEL-28 melanoma
  TGI: > 100 µM

## O=c1c2cc(I)ccc2nc(-c2cccs2)n1Nc1ccccc1
SF-268 CNS
  TGI: > 100 µM
HT29 colon
  TGI: > 100 µM
SF-539 CNS
  TGI: > 100 µM
SF-295 CNS
  TGI: 32.9 µM
NCI-H522 lung
  TGI: > 100 µM
MDA-MB-435
  TGI: > 100 µM
A549 NSCLC
  TGI: > 100 µM
NCI/ADR-RES ovarian
  TGI: > 100 µM
K-562 leukemia
  GI50: 0.301 µM
  TGI: 22.9 µM
RXF 393 renal
  TGI: > 100 µM
EKVX NSCLC
  TGI: 58.4 µM
SK-MEL-28 melanoma
  TGI: > 100 µM

## Cc1ccc2c(c1)C(C1Cc3c(C)cccc3C1=O)OC2=O (stereo unspecified)
SF-268 CNS
  TGI: > 100 µM
HT29 colon
  TGI: > 100 µM
SF-539 CNS
  TGI: > 100 µM
SF-295 CNS
  TGI: > 100 µM
NCI-H522 lung
  TGI: > 100 µM
MDA-MB-435
  TGI: > 100 µM
HOP-92 NSCLC
  TGI: > 100 µM
A549 NSCLC
  TGI: > 100 µM
NCI/ADR-RES ovarian
  TGI: > 100 µM
K-562 leukemia
  TGI: > 100 µM
RXF 393 renal
  TGI: > 100 µM
EKVX NSCLC
  TGI: > 100 µM
SK-MEL-28 melanoma
  TGI: > 100 µM

## O=C(O)CCC(=O)Nc1ccc2c(c1)S(=O)(=O)N(CC(=O)O)C2=O
HT29 colon
  TGI: > 100 µM
SF-539 CNS
  TGI: > 100 µM
SF-295 CNS
  TGI: > 100 µM
NCI-H522 lung
  TGI: > 100 µM
MDA-MB-435
  TGI: > 100 µM
HOP-92 NSCLC
  TGI: > 100 µM
A549 NSCLC
  TGI: > 100 µM
NCI/ADR-RES ovarian
  TGI: > 100 µM
K-562 leukemia
  TGI: > 100 µM
EKVX NSCLC
  TGI: > 100 µM
SK-MEL-28 melanoma
  TGI: > 100 µM

## O=C(/C=C/c1ccc(O)c(O)c1)NC(CO)C(=O)O (stereo unspecified)
SF-268 CNS
  TGI: > 100 µM
HT29 colon
  TGI: > 100 µM
SF-539 CNS
  TGI: > 100 µM
SF-295 CNS
  TGI: > 100 µM
NCI-H522 lung
  TGI: > 100 µM
MDA-MB-435
  TGI: > 100 µM
HOP-92 NSCLC
  TGI: > 100 µM
A549 NSCLC
  TGI: > 100 µM
NCI/ADR-RES ovarian
  TGI: 64.6 µM
K-562 leukemia
  TGI: > 100 µM
RXF 393 renal
  TGI: > 100 µM
EKVX NSCLC
  TGI: > 100 µM
SK-MEL-28 melanoma
  TGI: > 100 µM

## CSC1=N/C(=C\c2cccs2)C(=O)N1CN1CCCCC1
SF-268 CNS
  TGI: > 100 µM
HT29 colon
  TGI: > 100 µM
SF-295 CNS
  TGI: > 100 µM
MDA-MB-435
  TGI: > 100 µM
HOP-92 NSCLC
  TGI: 96.5 µM
A549 NSCLC
  TGI: > 100 µM
NCI/ADR-RES ovarian
  TGI: > 100 µM
K-562 leukemia
  TGI: > 100 µM
EKVX NSCLC
  TGI: > 100 µM
SK-MEL-28 melanoma
  TGI: > 100 µM

## CN1CC=C(OP(=O)(NCc2ccccc2)N(CCCl)CCCl)CC1 (stereo unspecified)
SF-268 CNS
  TGI: > 100 µM
HT29 colon
  TGI: > 100 µM
SF-539 CNS
  TGI: > 100 µM
SF-295 CNS
  TGI: > 100 µM
MDA-MB-435
  TGI: > 100 µM
HOP-92 NSCLC
  TGI: > 100 µM
NCI/ADR-RES ovarian
  TGI: > 100 µM
K-562 leukemia
  TGI: > 100 µM
RXF 393 renal
  TGI: > 100 µM
EKVX NSCLC
  TGI: > 100 µM
SK-MEL-28 melanoma
  TGI: > 100 µM
